ChEMBL document CHEMBL1148532, “Role of Tyr(356(7.43)) and Ser(190(4.57)) in antagonist binding in the rat beta1-adrenergic receptor” (J Med Chem, 2006)

Tests used:
[1] = target: Beta-1 adrenergic receptor (Rattus norvegicus, UniProt P18090)
Description: Antagonist activity at rat wild type beta-1 adrenergic receptor expressed in CHO cells

[2] = target: Beta-1 adrenergic receptor (Rattus norvegicus, UniProt P18090, Y356F)
[3] = target: Beta-1 adrenergic receptor (Rattus norvegicus, UniProt P18090, Y356A)
[4] = target: Beta-1 adrenergic receptor (Rattus norvegicus, UniProt P18090, W134A)
[5] = target: Beta-1 adrenergic receptor (Rattus norvegicus, UniProt P18090, S190A)
Sequence of Beta-1 adrenergic receptor (Rattus norvegicus, UniProt P18090, S190A) (P18090 whole entry S190A): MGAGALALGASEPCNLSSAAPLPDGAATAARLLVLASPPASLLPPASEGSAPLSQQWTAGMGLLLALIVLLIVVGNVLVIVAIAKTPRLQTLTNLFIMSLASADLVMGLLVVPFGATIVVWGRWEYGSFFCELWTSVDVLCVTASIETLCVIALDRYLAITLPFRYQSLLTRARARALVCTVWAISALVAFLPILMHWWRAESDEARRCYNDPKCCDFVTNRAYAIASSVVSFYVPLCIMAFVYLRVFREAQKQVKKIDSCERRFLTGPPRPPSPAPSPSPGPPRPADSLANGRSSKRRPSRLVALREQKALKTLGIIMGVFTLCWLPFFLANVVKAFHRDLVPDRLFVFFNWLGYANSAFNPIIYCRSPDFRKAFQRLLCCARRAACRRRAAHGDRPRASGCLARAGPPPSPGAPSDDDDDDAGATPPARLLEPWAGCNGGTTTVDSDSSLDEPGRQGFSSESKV

Sequence of Beta-1 adrenergic receptor (Rattus norvegicus, UniProt P18090) (P18090 whole entry): as the sequence (P18090 whole entry S190A) above, with A190S counted along it
Sequence of Beta-1 adrenergic receptor (Rattus norvegicus, UniProt P18090, W134A) (P18090 whole entry W134A): as the sequence (P18090 whole entry S190A) above, with W134A, A190S counted along it
Sequence of Beta-1 adrenergic receptor (Rattus norvegicus, UniProt P18090, Y356F) (P18090 whole entry Y356F): as the sequence (P18090 whole entry S190A) above, with A190S, Y356F counted along it
Sequence of Beta-1 adrenergic receptor (Rattus norvegicus, UniProt P18090, Y356A) (P18090 whole entry Y356A): as the sequence (P18090 whole entry S190A) above, with A190S, Y356A counted along it

Structure (SMILES): CCOCCOc1ccc(OC[C@@H](O)CNCCc2ccc(OC)c(OC)c2)cc1
- Ki [1]: 50.1 nM
- Ki [2]: 100 nM
- Ki [3]: 794 nM
- Ki [4]: 79.4 nM
- Ki [5]: 12600 nM

Structure (SMILES): CC(C)(C)NCC(O)COc1cccc2[nH]c(C#N)c(I)c12 (stereo not given)
- Kd [1]: 0.0631 nM
- Kd [2]: 0.0794 nM
- Kd [3]: 0.316 nM
- Kd [4]: 0.0631 nM
- Kd [5]: 0.0631 nM

Structure (SMILES): Cn1cc(C(F)(F)F)nc1-c1ccc(OCC(O)CNCCOc2ccc(O)c(C(N)=O)c2)cc1 (stereo not given) [CGP-20712A]
- Ki [1]: 1.26 nM
- Ki [2]: 2 nM
- Ki [3]: 10000 nM
- Ki [4]: 7.94 nM
- Ki [5]: 794 nM

Structure (SMILES): CC(C)(C)NCC(O)COc1cccc2[nH]c(C#N)cc12 (stereo not given) [CYANOPINDOLOL]
- Ki [1]: 0.0501 nM
- Ki [2]: 0.0398 nM
- Ki [3]: 316 nM
- Ki [4]: 0.126 nM
- Ki [5]: 0.316 nM

Structure (SMILES): N#Cc1cc(OCCOCC2CC2)ccc1OCC(O)CNCCNC(=O)Nc1ccc(O)cc1 (stereo not given) [LK-204545]
- Ki [1]: 7.94 nM
- Ki [2]: 79.4 nM
- Ki [3]: 79400 nM
- Ki [4]: 63.1 nM
- Ki [5]: 100 nM
